Measured values reported in patent US10208037B2, “Toll-like receptor-7 and -8 modulatory 1H imidazoquinoline derived compounds” (The University of Kansas, priority 2011, dated 2019).

Key:
Format in all cases: cell-based
TLR7 [1] = biological target: T1, TLR7 (Homo sapiens, UniProt Q9NYK1); assay: TLR7 reporter gene assay, antagonism (gardiquimod as agonist)
T1 construct: expressed in transfected cells; host or cells: HEK293 (HEK-Blue-7 cells)
T1 sequence (Q9NYK1 27-1049): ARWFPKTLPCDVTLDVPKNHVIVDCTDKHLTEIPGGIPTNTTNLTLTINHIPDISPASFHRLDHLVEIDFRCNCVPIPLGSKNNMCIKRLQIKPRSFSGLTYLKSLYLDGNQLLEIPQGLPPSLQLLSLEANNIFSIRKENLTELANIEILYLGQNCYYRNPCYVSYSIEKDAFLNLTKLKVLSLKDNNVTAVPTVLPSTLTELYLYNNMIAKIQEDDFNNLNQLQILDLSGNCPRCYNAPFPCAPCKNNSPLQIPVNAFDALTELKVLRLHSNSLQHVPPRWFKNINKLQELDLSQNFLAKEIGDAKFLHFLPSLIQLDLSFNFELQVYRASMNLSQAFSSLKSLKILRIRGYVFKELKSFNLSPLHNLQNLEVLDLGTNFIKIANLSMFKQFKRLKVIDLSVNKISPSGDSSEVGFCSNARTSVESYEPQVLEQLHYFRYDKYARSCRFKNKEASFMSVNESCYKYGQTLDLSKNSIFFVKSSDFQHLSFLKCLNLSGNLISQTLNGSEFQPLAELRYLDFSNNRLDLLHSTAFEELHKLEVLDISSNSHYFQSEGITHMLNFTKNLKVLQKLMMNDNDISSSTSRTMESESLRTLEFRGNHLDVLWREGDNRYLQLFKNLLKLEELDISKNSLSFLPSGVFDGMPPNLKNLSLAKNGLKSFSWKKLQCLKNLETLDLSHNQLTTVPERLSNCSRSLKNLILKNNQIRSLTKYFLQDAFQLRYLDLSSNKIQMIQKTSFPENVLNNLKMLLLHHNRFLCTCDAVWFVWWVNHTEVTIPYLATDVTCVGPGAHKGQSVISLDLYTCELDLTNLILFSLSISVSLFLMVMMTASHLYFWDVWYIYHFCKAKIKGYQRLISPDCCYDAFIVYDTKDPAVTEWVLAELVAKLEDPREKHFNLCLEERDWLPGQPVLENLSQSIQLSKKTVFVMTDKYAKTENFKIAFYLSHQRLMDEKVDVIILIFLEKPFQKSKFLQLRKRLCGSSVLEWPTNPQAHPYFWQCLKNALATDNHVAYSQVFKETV
Source text: (§1) The induction of NF-κB was quantified using HEK-Blue-3, HEK-Blue-7 and HEK-Blue-8 cells as previously described by us.^8,24,51 HEK293 cells were stably transfected with human TLR3 (or human TLR7 or human TLR8), MD2, and secreted alkaline phosphatase (sAP), and were maintained in HEK-Blue™ Selection medium containing zeocin and normocin. Stable expression of secreted alkaline phosphatase (sAP) under control of NF-κB/AP-1 promoters is inducible by the TLR3 (or TLR7 or TLR8) agonists, and extracellular sAP in the supernatant is proportional to NF-κB induction. HEK-Blue cells were incubated at a density of ˜10^5 cells/ml in a volume of 80 μl/well, in 384-well, flat-bottomed, cell culture-treated microtiter plates until confluency was achieved, and subsequently graded concentrations of stimuli. sAP was assayed spectrophotometrically using an alkaline phosphatase-specific chromogen (present in HEK-detection medium as supplied by the vendor) at 620 nm.
(§2) Antagonism assays were done as described by us earlier^73 using the following agonists at a constant concentration: TLR3 Poly(I:C) (10 ng/mL); TLR7: gardiquimod (1 μg/mL); TLR8: CL075 (1 μg/mL) mixed with graded concentrations of the test compounds.

TLR8 [2] = biological target: T2, TLR8 (Homo sapiens, UniProt Q9NR97); assay: TLR8 reporter gene assay, antagonism (CL075 as agonist); conditions: for IC50: agonist CL075 1 μg/mL, ND = not detected
T2 construct: expressed in transfected cells; host or cells: HEK293 (HEK-Blue-8 cells)
T2 sequence (Q9NR97 27-1041): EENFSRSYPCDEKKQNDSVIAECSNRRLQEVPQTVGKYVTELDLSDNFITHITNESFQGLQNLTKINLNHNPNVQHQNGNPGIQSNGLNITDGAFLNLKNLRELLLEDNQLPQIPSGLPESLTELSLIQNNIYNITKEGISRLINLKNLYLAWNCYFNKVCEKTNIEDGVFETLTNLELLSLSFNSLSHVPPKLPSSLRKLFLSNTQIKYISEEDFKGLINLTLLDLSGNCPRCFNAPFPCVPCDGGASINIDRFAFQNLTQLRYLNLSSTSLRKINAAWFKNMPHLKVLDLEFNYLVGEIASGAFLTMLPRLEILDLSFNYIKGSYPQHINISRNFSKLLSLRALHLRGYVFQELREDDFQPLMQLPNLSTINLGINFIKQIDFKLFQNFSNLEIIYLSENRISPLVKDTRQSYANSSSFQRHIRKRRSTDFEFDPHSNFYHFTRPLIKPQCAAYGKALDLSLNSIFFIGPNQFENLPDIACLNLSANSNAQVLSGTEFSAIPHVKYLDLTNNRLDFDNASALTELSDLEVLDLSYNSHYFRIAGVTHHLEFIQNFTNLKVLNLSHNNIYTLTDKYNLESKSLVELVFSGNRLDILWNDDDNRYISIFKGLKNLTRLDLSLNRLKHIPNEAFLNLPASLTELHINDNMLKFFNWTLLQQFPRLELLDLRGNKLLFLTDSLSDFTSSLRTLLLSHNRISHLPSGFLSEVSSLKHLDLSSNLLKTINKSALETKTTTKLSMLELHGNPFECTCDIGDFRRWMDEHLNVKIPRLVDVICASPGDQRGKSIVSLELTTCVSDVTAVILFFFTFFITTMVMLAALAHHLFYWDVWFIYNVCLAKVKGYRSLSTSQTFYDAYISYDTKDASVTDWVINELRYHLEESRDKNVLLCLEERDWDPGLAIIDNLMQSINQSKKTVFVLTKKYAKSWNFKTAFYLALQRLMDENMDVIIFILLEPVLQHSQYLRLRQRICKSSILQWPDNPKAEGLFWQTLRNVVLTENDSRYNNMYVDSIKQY
Source text: as §1, §2

TLR7 [3] = biological target: T1, TLR7; assay: TLR7 reporter gene assay (NF-κB induction, HEK-Blue-7 cells), agonism; conditions: Table 1; ND = not detected; read-out: TLR7 Agonism
Source text: (§3) NF-κB induction: The induction of NF-κB was quantified using HEK-Blue-7 cells and HEK-Blue-8 cells as previously described by us.^8,24 HEK293 cells were stably transfected with human TLR7 (or human TLR8), MD2, and secreted alkaline phosphatase (sAP), and were maintained in HEK-Blue™ Selection medium containing zeocin and normocin. Stable expression of secreted alkaline phosphatase (sAP) under control of NF-κB/AP-1 promoters is inducible by the TLR7 (or TLR8) agonists, and extracellular sAP in the supernatant is proportional to NF-κB induction. HEK-Blue cells were incubated at a density of […] in a volume of 80 μL/well, in 384-well, flat-bottomed, cell culture-treated microtiter plates until confluency was achieved, and subsequently graded concentrations of stimuli. sAP was assayed spectrophotometrically using an alkaline phosphatase-specific chromogen (present in HEK-detection medium as supplied by the vendor) at 620 nm.
as §1

TLR8 [4] = biological target: T2, TLR8; assay: TLR8 reporter gene assay (NF-κB induction, HEK-Blue-8 cells), agonism
Source text: as §3, §1

[5] = test system: TLR7 and TLR8-induced cytokine and chemokine release; assay: Inhibition of TLR7- and TLR8-mediated cytokine and chemokine production in human PBMCs; conditions: hPBMCs
Description: FIGS. 22A-[…] illustrate inhibition of TLR7-mediated (FIGS. 22A-22D) and TLR8-mediated (FIGS. 22E-[…]) proinflammatory cytokine production in human peripheral blood mononuclear cells by chloroquine or 47a. Proinflammatory cytokines were assayed by cytokine bead array methods after incubation of hPBMCs with graded concentrations of the test compound for 12 h in the presence of 10 μg/ml of either CL075 (TLR8 agonist) or gardiquimod (TLR7 agonist). FIGS. 23A-23D illustrate inhibition of TLR7-mediated (FIGS. 23A-23B) and TLR8-mediated (FIGS. 23C-3D) chemokine production in human peripheral blood mononuclear cells by chloroquine or 47a. Chemokines were assayed by cytokine bead array methods after incubation of hPBMCs with graded concentrations of the test compound for 12 h in the presence of 10 μg/ml of either CL075 (TLR8 agonist) or gardiquimod (TLR7 agonist). Aliquots (10^6 cells in 100 μL) of hPBMCs isolated from blood obtained from healthy human donors after informed consent by conventional Ficoll-Hypaque gradient centrifugation were stimulated for 12 h with graded concentrations of test compounds. The supernatant was isolated by centrifugation, diluted 1:20, and cytokines and chemokines were assayed in triplicate using analyte-specific cytokine/chemokine bead array assays as reported by us previously.^74

SMILES	TLR7 antagonistic activity (in words) (TLR7 [1])	TLR8 antagonistic activity (in words) (TLR8 [2])	IC50 (TLR8 [2]) [µM]	EC50 (TLR7 [3]) [µM]	TLR8-agonistic activity (in words) (TLR8 [4])	IC50 (TLR7 [1]; agonist gardiquimod 1 μg/mL, ND = not detected) [µM]	Inhibition of TNF-α and IL-1β production (in words) [5]
Nc1nc2ccccc2c2c1nc(CCCCCCc1nc3c(N)nc4ccccc4c3n1Cc1ccccc1)n2Cc1ccccc1 [Compound 49a, 2,2′-(hexane-1,6-diyl)bis(1-benzyl-1H-imidazo[4,5-c]quinolin-4-amine)]	potent antagonistic activity	potent antagonistic activity	10.9	–	–	–	–
CCCCc1nc2c(N)nc3ccc(NC(=O)CCCCCCCCCCC(=O)Nc4ccc5nc(N)c6nc(CCCC)n(Cc7ccc(CN)cc7)c6c5c4)cc3c2n1Cc1ccc(CN)cc1 [Compound 55c, N^1,N^12-bis(4-amino-1-(4-(aminomethyl)benzyl)-2-butyl-1H-imidazo[4,5-c]quinolin-8-yl) dodecanediamide]	–	–	–	5.4	dual TLR7/TLR8 activity	–	–
Nc1nc2ccccc2c2c1nc(CCCCCCCCCCc1nc3c(N)nc4ccccc4c3n1Cc1ccccc1)n2Cc1ccccc1 [Compound 49b, 2,2′-(decane-1,10-diyl)bis(1-benzyl-1H-imidazo[4,5-c]quinolin-4-amine)]	potent antagonistic activity	potent antagonistic activity	4.65	–	–	17.9	–
Nc1nc2ccccc2c2c1nc(CCCCc1nc3c(N)nc4ccccc4c3n1Cc1ccccc1)n2Cc1ccccc1 [Compound 47b, 2,2′-(butane-1,4-diyl)bis(1-benzyl-1H-imidazo[4,5-c]quinolin-4-amine)]	potent antagonistic activity	potent antagonistic activity	15.6	–	–	–	–
CCN(CC)CCCC(C)Nc1ccnc2cc(Cl)ccc12 (stereo not shown) [Chloroquine, reference compound]	–	–	–	–	–	–	feeble inhibitor
